Measured values published in patent publication US12410163B2, “Compounds as GLP-IR agonists” (Terns Pharmaceuticals, Inc., priority 2022, dated 2025).

Assay: Metabolic stability in hepatocytes
Type: in vitro ADME
Conditions: cryopreserved human hepatocytes (suspension), 1×10^6 cells/mL; for half-life at 1 μM: 0-240 min, read-out: hHep t1/2; for CLint scaled at 1 μM: intrinsic clearance, read-out: hHep CLint
Experimental: Test compounds are incubated in human hepatocytes and stability is assessed from the substrate […] approach. Test compounds are dissolved in dimethyl sulfoxide (DMSO) to create a 10 mM Stock, and then further diluted to create a 1000× Working Stock of 1 mM with DMSO in 96-well plates for test compounds and the positive control (midazolam). Vials containing cryopreserved hepatocytes are removed from the liquid nitrogen tank and immediately immersed in a 37° C. water bath. The vials are shaken gently until the contents had thawed and were then immediately emptied into 48 mL of pre-warmed HT Medium in a 50 mL conical tube. Cells remaining in the vial are resuspended with 1.0 mL of pre-warmed HT Medium and added to the conical tube. The tube is capped and then gently inverted several times to resuspend the hepatocytes. The cell suspension is centrifuged at 50×g at room temperature for 5 minutes and the supernatant discarded. The cell pellet is loosened by gently swirling the centrifuge tube and is re-suspended in 4 mL of warm Dulbecco's Modified Eagle medium (DMEM). Cell density is determined by a cell counter by Nexcelom, and DMEM medium is added to obtain a target density of 1×10^6 cells/mL. The assay is carried out in 96-well microtiter plates. Test Compounds are incubated at 1 μM with 1×10^6 cells/mL hepatocytes in DMEM for 0, 30, 60, 120 and 240 minutes. The incubation is carried out with gentle shaking at 37° C. under a humid atmosphere of 95% air/5% CO2. The volume of the incubation mixture is 37 μL with a final 0.1% DMSO. At each of the time points, the incubation is stopped by adding 150 μL quenching solution (100% acetonitrile, 0.1% formic acid containing bucetin as an internal standard for positive ESI mode). Subsequently, the mixtures are vortexed for 20 min and centrifuged at 4,000 RPM at 10° C. The supernatant (80 μL) is transferred to a clean 96-well plate and analyzed by LC-MS/MS. Midazolam at 1 μM with a final 0.1% DMSO is included as a positive control to verify assay performance. The percent parent remaining, intrinsic and predicted hepatic clearance and t1/2 are calculated. All samples are analyzed by LC-MS/MS using an AB Sciex API 4000 instrument, coupled to a Shimadzu LC-20AD LC Pump system. Separation is achieved using a Waters Atlantis T3 dC18 reverse phase HPLC column (20 mm×2.1 mm) at a flow rate of 0.5 mL/min. The mobile phase consisted of 0.1% formic acid in water (solvent A) and 0.1% formic acid in 100% acetonitrile (solvent B). Elution conditions are detailed below.
The ion optics of each test compound are optimized for their declustering potential (DP), […] (CE), collision-cell exit potential (CXP) and used in a selected ion monitoring experiment in the positive ion mode. The peak area ratio of each test compound to internal standard is then evaluated for stability. The extent of metabolism is calculated based on the disappearance of the test compound, compared to its initial concentration. The initial rates of clearance of the test compound are calculated using the linear regression plot of semi-log % remaining of the compound versus time. The elimination rate constant (k) of the linear regression plot is then used to determine t1/2 and the intrinsic clearance (CLint) using the following formula, where Chepatocyte (million cells/mL) is the cell density of the incubation: k=−slope t1/2=0.693/k CLint=k/Chepatocyte
Test compounds were incubated in human hepatocytes and stability was assessed from the substrate […] approach. Test compounds were dissolved in dimethyl sulfoxide (DMSO) to create a 10 mM Stock, and then further diluted to create a 1000× Working Stock of 1 mM with DMSO in 96-well plates for test compounds and the positive control (midazolam). Vials containing cryopreserved hepatocytes were removed from the liquid nitrogen tank and immediately immersed in a 37° C. water bath. […]

half-life at 1 μM	CLint scaled at 1 μM	Structure (SMILES)
6.27 h	6.4 mL/min/kg	N#Cc1ccc(COc2ccnc(N3CCN(Cc4nc5ccc(C(=O)O)cc5n4Cc4cncs4)[C@@H]4C[C@@H]43)n2)c(F)c1 [Compound 20, 2-((5-(4-((4-Cyano-2-fluorobenzyl)oxy)pyrimidin-2-yl)-2,5-diazabicyclo[4.1.0]heptan-2-yl)methyl)-1-(thiazol-5-ylmethyl)-1H-benzo[d]imidazole-6-carboxylic Acid]
6.2 h	6.46 mL/min/kg	CCn1nncc1Cn1c(CN2CCN(c3cccc(OCc4ccc(C#N)cc4F)n3)[C@H]3C[C@H]32)nc2ccc(C(=O)O)cc21 [Compound 45, 2-((5-(6-((4-Cyano-2-fluorobenzyl)oxy)pyridin-2-yl)-2,5-diazabicyclo[4.1.0]heptan-2-yl)methyl)-1-((1-ethyl-1H-1,2,3-triazol-5-yl)methyl)-1H-benzo[d]imidazole-6-carboxylic Acid]
5.65 h	7.09 mL/min/kg	N#Cc1ccc(COc2cccc(N3CCN(Cc4nc5ccc(C(=O)O)cc5n4C[C@@H]4CCO4)[C@@H]4C[C@@H]43)n2)c(F)c1 (single isomer, unassigned) [Compound 43]
6.85 h	5.86 mL/min/kg	CC1(c2ccc(C#N)cc2F)Oc2cccc(N3CCN(Cc4nc5ccc(C(=O)O)cc5n4CC4(C#N)CC4)C4CC43)c2O1 (stereo not drawn) [Compound 40, 2-((5-(2-(4-Cyano-2-fluorophenyl)-2-methylbenzo[d][1,3]dioxol-4-yl)-2,5-diazabicyclo[4.1.0]heptan-2-yl)methyl)-1-((1-cyanocyclopropyl)methyl)-1H-benzo[d]imidazole-6-carboxylic Acid]
5.37 h	7.46 mL/min/kg	N#Cc1ccc(COc2cccc([C@@H]3CCN(Cc4nc5ccc(C(=O)O)cc5n4Cc4cncs4)[C@@H]4C[C@@H]43)n2)c(F)c1 (single isomer, unassigned) [Compound 5, 2-((5-(6-((4-Cyano-2-fluorobenzyl)oxy)pyridin-2-yl)-2-azabicyclo[4.1.0]heptan-2-yl)methyl)-1-(thiazol-5-ylmethyl)-1H-benzo[d]imidazole-6-carboxylic Acid]
0.23 h	17.5 mL/min/kg	CC1(c2ccc(C#N)cc2F)Oc2cccc(C3CCN(Cc4nc5ccc(C(=O)O)cc5n4Cc4cncs4)CC3)c2O1 (stereo not drawn) [Compound 18]
2.87 h	14 mL/min/kg	N#Cc1ccc(COc2cccc([C@H]3CCN(Cc4nc5ccc(C(=O)O)cc5n4Cc4cncs4)[C@@H]4C[C@H]34)n2)c(F)c1 (single isomer, unassigned) [Compound 4, 2-((5-(6-((4-Cyano-2-fluorobenzyl)oxy)pyridin-2-yl)-2-azabicyclo[4.1.0]heptan-2-yl)methyl)-1-(thiazol-5-ylmethyl)-1H-benzo[d]imidazole-6-carboxylic Acid]
5.1 h	7.86 mL/min/kg	N#Cc1ccc(COc2cccc([C@H]3CCN(Cc4nc5ccc(C(=O)O)cc5n4Cc4cncs4)[C@H]4C[C@@H]34)n2)c(F)c1 (single isomer, unassigned) [Compound 14, 2-((5-(6-((4-Cyano-2-fluorobenzyl)oxy)pyridin-2-yl)-2-azabicyclo[4.1.0]heptan-2-yl)methyl)-1-(thiazol-5-ylmethyl)-1H-benzo[d]imidazole-6-carboxylic Acid]
4.33 h	9.24 mL/min/kg	N#Cc1ccc(COc2cccc([C@@H]3CCN(Cc4nc5ccc(C(=O)O)cc5n4Cc4cncs4)[C@H]4C[C@@H]34)n2)c(F)c1 (single isomer, unassigned) [Compound 15, 2-((5-(6-((4-Cyano-2-fluorobenzyl)oxy)pyridin-2-yl)-2-azabicyclo[4.1.0]heptan-2-yl)methyl)-1-(thiazol-5-ylmethyl)-1H-benzo[d]imidazole-6-carboxylic Acid]
	5.01 mL/min/kg	N#Cc1ccc(COc2cccc(N3CCN(Cc4nc5ccc(C(=O)O)cc5n4Cc4cncs4)[C@H]4C[C@H]43)n2)c(F)c1 (single isomer, unassigned) [Compound 2, 2-((5-(6-((4-Cyano-2-fluorobenzyl)oxy)pyridin-2-yl)-2,5-diazabicyclo[4.1.0]heptan-2-yl)methyl)-1-(thiazol-5-ylmethyl)-1H-benzo[d]imidazole-6-carboxylic Acid]
3.36 h	11.9 mL/min/kg	N#Cc1ccc(COc2cccc(N3CCN(Cc4nc5ccc(C(=O)O)cc5n4Cc4cncs4)[C@@H]4C[C@@H]43)n2)c(F)c1 (single isomer, unassigned) [Compound 1, 2-((5-(6-((4-cyano-2-fluorobenzyl)oxy)pyridin-2-yl)-2,5-diazabicyclo[4.1.0]heptan-2-yl)methyl)-1-(thiazol-5-ylmethyl)-1H-benzo[d]imidazole-6-carboxylic Acid]
